Measurements published in PubChem BioAssay (NCI).
“And” between values parts separate entries of the source, which are not always exact repeats. Equal values may be shown once.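 GI50: concentration for 50% inhibition of growth. At the TGI there is no net growth.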

How the values were obtained:
Assay in all cases: NCI anticancer screen, dose series, 384-well format
[1] = test system: 786-0 renal
[2] = test system: A498 renal
[3] = test system: A549 NSCLC
[4] = test system: ACHN renal
[5] = test system: BT-549 breast
[6] = test system: CAKI-1 renal
[7] = test system: CCRF-CEM leukemia
[8] = test system: COLO 205 colon
[9] = test system: DU-145 prostate
[10] = test system: EKVX NSCLC
[11] = test system: HCC-2998 colon
[12] = test system: HCT-116 colon
[13] = test system: HCT-15 colon
[14] = test system: HL-60(TB) leukemia
[15] = test system: HOP-62 NSCLC
[16] = test system: HOP-92 NSCLC
[17] = test system: HS 578T breast
[18] = test system: HT29 colon
[19] = test system: IGROV1 ovarian
[20] = test system: K-562 leukemia
[21] = test system: KM12 colon
[22] = test system: LOX IMVI melanoma
[23] = test system: M14 melanoma
[24] = test system: MALME-3M melanoma
[25] = test system: MCF7 breast
[26] = test system: MDA-MB-231 breast
[27] = test system: MDA-MB-435 melanoma
[28] = test system: MDA-MB-468 breast
[29] = test system: MOLT-4 leukemia
[30] = test system: NCI-H226 lung
[31] = test system: NCI-H23 lung
[32] = test system: NCI-H322M lung
[33] = test system: NCI-H460 NSCLC
[34] = test system: NCI-H522 lung
[35] = test system: NCI/ADR-RES ovarian
[36] = test system: OVCAR-3 ovarian
[37] = test system: OVCAR-4 ovarian
[38] = test system: OVCAR-5 ovarian
[39] = test system: OVCAR-8 ovarian
[40] = test system: PC-3 prostate
[41] = test system: RPMI-8226 leukemia
[42] = test system: RXF 393 renal
[43] = test system: SF-268 CNS
[44] = test system: SF-295 CNS
[45] = test system: SF-539 CNS
[46] = test system: SK-MEL-28 melanoma
[47] = test system: SK-MEL-5 melanoma
[48] = test system: SK-OV-3 ovarian
[49] = test system: SN12C renal
[50] = test system: SNB-19 CNS
[51] = test system: SNB-75 CNS
[52] = test system: SR leukemia
[53] = test system: SW-620 colon
[54] = test system: T-47D breast
[55] = test system: TK-10 renal
[56] = test system: U251 glioblastoma
[57] = test system: UACC-257 melanoma
[58] = test system: UACC-62 melanoma
[59] = test system: UO-31 renal

SMILES: Cn1cc(-c2nc(N[C@@H]3CCCC[C@@H]3N)c(F)c3c2C(=O)NC3)cn1
- GI50 [1]: 5.53 µM and 4.81 µM
- TGI [1]: 17.9 µM and 18.3 µM
- GI50 [2]: 0.559 µM and 1.3 µM
- TGI [2]: 10.4 µM and 8.94 µM
- GI50 [3]: 4.08 µM and 6.73 µM
- TGI [3]: 33.2 µM and 32.9 µM
- GI50 [4]: 2 µM and 6.59 µM
- TGI [4]: 59.2 µM and > 100 µM
- GI50 [5]: 2.17 µM and 5.01 µM
- TGI [5]: 5.18 µM and 15.9 µM
- GI50 [6]: 3.22 µM and 4.17 µM
- TGI [6]: 19.7 µM and 19.3 µM
- GI50 [7]: 1.48 µM and 1.75 µM
- TGI [7]: 2.97 µM and 3.26 µM
- GI50 [8]: 1.45 µM and 1.85 µM
- TGI [8]: 2.9 µM and 3.53 µM
- GI50 [9]: 4.08 µM and 9.76 µM
- TGI [9]: 30.8 µM and 38.1 µM
- GI50 [10]: 5.37 µM and 12.8 µM
- TGI [10]: 29.5 µM and 62.4 µM
- TGI [11]: 20.6 µM and 38.7 µM
- GI50 [12]: 2.04 µM and 2.98 µM
- TGI [12]: 17.3 µM and 17.9 µM
- GI50 [13]: 5.33 µM and 10.6 µM
- TGI [13]: 28.3 µM and > 100 µM
- GI50 [14]: 3.18 µM and 2.76 µM
- TGI [14]: 14.7 µM and 13.3 µM
- GI50 [15]: 2.31 µM and 4.56 µM
- TGI [15]: 9.99 µM and 16.5 µM
- GI50 [16]: 3.89 µM and 5.41 µM
- TGI [16]: 15.6 µM and 18.3 µM
- GI50 [17]: 2.21 µM and 11 µM
- TGI [17]: 12.1 µM and 25.5 µM
- GI50 [18]: 4.79 µM and 7.58 µM
- TGI [18]: 58.5 µM and 26.6 µM
- GI50 [19]: 2.99 µM and 10.9 µM
- TGI [19]: 28.9 µM and 90.9 µM
- GI50 [20]: 2.93 µM and 3.44 µM
- TGI [20]: 14 µM and 18.6 µM
- GI50 [21]: 0.339 µM and 0.445 µM
- TGI [21]: 25.2 µM and 45.1 µM
- GI50 [22]: 1.85 µM and 3.58 µM
- TGI [22]: 3.98 µM and 12.7 µM
- GI50 [23]: 0.615 µM and 1.56 µM
- TGI [23]: 25.7 µM and 14.5 µM
- GI50 [24]: 6.89 µM and 4.15 µM
- TGI [24]: 22.2 µM and 26 µM
- GI50 [25]: 2.89 µM and 19.2 µM
- TGI [25]: 36.5 µM and 81.2 µM
- GI50 [26]: 5 µM and 10.4 µM
- TGI [26]: 17.7 µM and 22.9 µM
- GI50 [27]: 4.49 µM and 6.35 µM
- TGI [27]: > 100 µM
- GI50 [28]: 3.08 µM and 4.3 µM
- TGI [28]: 6.44 µM and 11.7 µM
- GI50 [29]: 0.299 µM and 1.14 µM
- GI50 [30]: 2.08 µM and 4.38 µM
- TGI [30]: 7.05 µM and 27.9 µM
- GI50 [31]: 2.17 µM and 4.29 µM
- TGI [31]: 13 µM and 17.5 µM
- GI50 [32]: 15.5 µM and 28.7 µM
- TGI [32]: 38.9 µM and > 100 µM
- GI50 [33]: 2.61 µM and 3.15 µM
- TGI [33]: 13.5 µM and 14.3 µM
- GI50 [34]: 1.64 µM and 3.56 µM
- TGI [34]: 6.01 µM and 15.4 µM
- GI50 [35]: 38.8 µM and > 100 µM
- TGI [35]: > 100 µM
- GI50 [36]: 9.28 µM and 9.39 µM
- TGI [36]: 24.7 µM and 34.3 µM
- GI50 [37]: 15.2 µM and 21.4 µM
- TGI [37]: 30.5 µM and 43.7 µM
- GI50 [38]: 6.09 µM
- TGI [38]: 21.6 µM
- GI50 [39]: 6.08 µM and 12.2 µM
- TGI [39]: 19.4 µM and 25.2 µM
- GI50 [40]: 9.39 µM and 15.4 µM
- TGI [40]: 45.3 µM and 86.9 µM
- GI50 [41]: 0.537 µM and 1.52 µM
- TGI [41]: 2.19 µM and 4.13 µM
- GI50 [42]: 0.596 µM and 2.12 µM
- TGI [42]: 3.57 µM and 13 µM
- GI50 [43]: 2.79 µM and 9.19 µM
- TGI [43]: 15.2 µM and 45.5 µM
- GI50 [44]: 0.675 µM and 3.12 µM
- TGI [44]: 2.81 µM and 11.7 µM
- GI50 [45]: 1.35 µM and 3.09 µM
- TGI [45]: 3.56 µM and 13 µM
- GI50 [46]: 10.2 µM and 11.2 µM
- TGI [46]: 66.1 µM and > 100 µM
- TGI [47]: 17.8 µM and 34.5 µM
- GI50 [48]: 2.07 µM and 10.8 µM
- TGI [48]: 21.5 µM and 65.8 µM
- GI50 [49]: 2.09 µM and 1.95 µM
- TGI [49]: 10.9 µM and 7.66 µM
- GI50 [50]: 17.8 µM and 19.4 µM
- TGI [50]: 33.7 µM and 39.1 µM
- GI50 [51]: 1.88 µM and 5.16 µM
- TGI [51]: 4.98 µM and 19.4 µM
- GI50 [52]: 0.535 µM and 0.17 µM
- TGI [52]: 1.78 µM and 0.447 µM
- GI50 [53]: 2.37 µM and 5.69 µM
- TGI [53]: 7.78 µM and 25.8 µM
- GI50 [54]: 32.5 µM and 56.3 µM
- TGI [54]: 85.3 µM and > 100 µM
- GI50 [55]: 3.87 µM and 12.1 µM
- TGI [55]: 17.5 µM and 26.9 µM
- GI50 [56]: 14.2 µM and 17.6 µM
- TGI [56]: 27.9 µM and 32.8 µM
- GI50 [57]: 12.8 µM and 33.7 µM
- TGI [57]: 33.4 µM and > 100 µM
- GI50 [58]: 13.3 µM
- TGI [58]: 39.5 µM
- GI50 [59]: 7.89 µM and 11 µM
- TGI [59]: 20.5 µM and 23.2 µM
